Test results reported in patent US8506950B2, “Degradable microcapsules” (ETH Zurich, priority 2008, dated 2013).

Legend:
rLHR [1] = molecular target: T1, rLHR (Rattus norvegicus, UniProt P16235); experiment: Cellulase activity assay of supernatants of CK04 cells transfected with pCK71; assay type: cell-based; parameters: Full-length cDNAs encoding the LHRs of rat (r) and bovine (b) origin; expressed in transfected cells; host or cells: CK04: HEK293T stably cotransfected with pLEN-rLHR and pZeoSV2(+), clone 6; conditions: CK04 + pCK71, supernatants 48 h post-induction
Method: Cellulase activity assay performed from cell culture supernatants 48 h post-induction.
A novel bLH-responsive microcapsule degradation system was established by placing an engineered secreted version of the lytic enzyme endo-1.4-beta-glucanase gene (cellulase) under control of PCRE. […] The protein had the estimated size of 57 kDa. Additionally, the functionality of the pCK71-encoded cellulase was evaluated by performing a cellulase activity assay (FIG. 12).
Cellulase was quantified using EnzCheck® fluorescent substrate (Molecular Probes, Eugene, Oreg., USA) according to the manufacturer's protocol: 20 μl of cell culture supernatant was centrifuged at 16,000×g for one minute to remove cell debris and 15 μl of appropriate dilutions in PBS (Invitrogen, cat. no. 21600-069) were transferred to a 384-well plate containing 15 μl sodium acetate buffer (200 mM sodium acetate, pH 5.5) per well supplemented with 3 μl substrate solution. Plates were incubated at 37° C. for 30 minutes and fluorescence intensity was measured subsequently at 340 nm (excitation wavelength) and 450 nm (emission wavelength) in a Genios Pro multiwell plate reader (Tecan A G, Maennedorf, Switzerland). Absolute cellulase levels were determined by comparing the fluorescence intensities to readings of standardized solutions containing known concentrations of Aspergillus niger cellulase (Sigma, cat. no. 22178). […]

rLHR [2] = molecular target: T1, rLHR; experiment: bLH-dependent luciferase expression in stable rLHR clone 6 (CK04); assay type: cell-based; parameters: Full-length cDNAs encoding the LHRs of rat (r) and bovine (b) origin; expressed in transfected cells; host or cells: CK04: HEK293T stably cotransfected with pLEN-rLHR and pZeoSV2(+), clone 6; conditions: clone 6, 500 ng/ml bLH, pCRE-Luc
Method: HEK293T cells were cotransfected with pLEN-LHR and pZeoSV2. After clonal expansion several single clones were transiently transfected with pCRE-Luc and screened for the functional expression of rLHR by their ability to respond to bLH. […] (□) no bLH; (▪) 500 ng/ml bLH. Luciferase expression was expressed as relative light units (RLU).
Functional expression of LHRs on the cell surface results in the stimulation of PKA and an increase of intracellular cAMP in response to bLH. It was evaluated whether the activated LHR-signaling may induce a PKA-responsive promoter. […] 24 hours post-transfection the cells were induced by bLH and the SEAP expression was determined over time. […] In comparing rLHR- and bLHR-expressing cells a 3-fold increase in maximal SEAP expression in response to bLH of the rLHR over the bLHR was detected. […]
The intracellular cAMP production of cells was quantified using the cAMP Fluorescence Polarization (FP) Biotrak Immunoassay System (GE Healthcare Bio-Sciences GmbH, Otelfingen, Switzerland, Cat No. RPN3595) according to the manufacturer's protocol. The expression of firefly luciferase was determined with the Tropix Luciferase Assay Kit (Applied Biosystems, Bedford, USA, Cat No. BC100L). […] Enhanced YFP-expression was detected by fluorescence microscopy (Leica Microsystems, Wetzlar, Germany)

T1 sequence (P16235 27-700): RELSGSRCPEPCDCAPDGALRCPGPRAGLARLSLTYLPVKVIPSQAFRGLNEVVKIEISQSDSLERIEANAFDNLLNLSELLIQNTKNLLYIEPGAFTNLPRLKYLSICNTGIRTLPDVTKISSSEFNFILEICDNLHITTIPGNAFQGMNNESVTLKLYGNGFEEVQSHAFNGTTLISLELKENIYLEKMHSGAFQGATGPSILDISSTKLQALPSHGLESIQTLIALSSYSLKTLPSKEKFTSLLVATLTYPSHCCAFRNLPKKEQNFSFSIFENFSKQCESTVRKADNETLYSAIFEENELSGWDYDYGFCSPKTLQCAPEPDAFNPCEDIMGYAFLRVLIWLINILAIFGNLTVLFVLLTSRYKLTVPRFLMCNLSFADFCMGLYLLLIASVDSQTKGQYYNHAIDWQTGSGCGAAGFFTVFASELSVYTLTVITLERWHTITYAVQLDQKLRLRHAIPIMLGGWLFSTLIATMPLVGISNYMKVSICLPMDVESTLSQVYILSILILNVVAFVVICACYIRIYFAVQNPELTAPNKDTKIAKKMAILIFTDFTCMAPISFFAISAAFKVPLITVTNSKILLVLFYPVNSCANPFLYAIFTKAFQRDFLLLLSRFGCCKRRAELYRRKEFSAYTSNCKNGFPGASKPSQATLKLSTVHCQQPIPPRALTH

bLH-dependent increase in cellulase activity (rLHR [1]): 8.4±0.2 fold
induction of luciferase expression in response to bLH (rLHR [2]): 17.0±0.2 fold
Substance: bovine luteinizing hormone [bLH]
